Experiment [1] relates to hypoxemia model animals. Put plainly: Effect on partial pressure value of gases in arterial blood, injection system, Method B (acetic acid induced respiratory insufficiency). It is filed as in vivo, rat (Male Wister strain). The following applies: continuous i.v. 0.1 mg/kg/min., 10 min.; for Activity for Decreasing PaCO2: increment PaCO2: PaCO2 after minus before administration; for Activity for Increasing PaO2: increment PaO2: PaO2 after minus before administration. As for the experimental part: Effect on Partial Pressure Value of Gases in Arterial Blood (Injection system) <Method B> Male Wister strain rats (body about 300 g) were anesthetized with halothane inhalant, and then 2.0% acetic acid was […] injected at 0.6 ml/kg to induce a respiratory insufficiency. The animals were intra-peritoneally anesthetized with urethane-α-chloralose, and a cannula was inserted into the femoral artery. After the hypoxemic state (PaO2 : 60-70 mmHg) was observed a compound in accordance with the present invention (test substance) was continuously intravenously injected into these hypoxemia model animals (0.1 mg/kg/min., 10 min.), and then a partial pressure value of gases (PaO2, PaCO2) in arterial blood was immediately determined.

In a further experiment the test system is hypoxemia animals. Put plainly: Effect on partial pressure value of gases in arterial blood, oral administration system, Method B (3 days after acetic acid). It is filed as in vivo, rat (Male wistar strain). The following applies: 60 min. after administration. As for the experimental part: Effect on Partial Pressure Value of Gases in Arterial Blood (Oral Administration System)
Male wistar strain rats (body weight about 350 g) were anesthetized with halothane inhalant, and then 2.0% acetic acid were intratrachealy injected at 0.6 ml/kg body to induce a hypoxemia state. In 3 days after injection with 2.0% acetic acid, rats fasted overnight were anesthetized with halothane inhalant, and a cannula inserted into the femoral artery. After these hypoxemia animals (PaO2 : 60-80 mmHg) were recovered from the anesthesia, a compound in accordance with the present invention (test substance, 10 or 30 mg/kg) was orally administered to the animals. At 60 min. after the administration, the partial pressure value of gases (PaO2, PaCO2) in arterial blood was determined.

Experiment [2] has as its system hypoxemia model animals. The experiment is described as follows: Effect on partial pressure value of gases in arterial blood, injection system, Method A (carbon powder induced hypoxemia). It is filed as in vivo, rat (Male Wister strain). The following applies: continuous i.v. 0.1 mg/kg/min., 10 min.; for Activity for Decreasing PaCO2: increment PaCO2: PaCO2 after minus before administration; for Activity for Increasing PaO2: increment PaO2: PaO2 after minus before administration. As for the experimental part: Effect on Partial Pressure Value of Gases in Arterial Blood (Injection system)
Male Wister strain rats (body weight about 300 g) were anesthetized intra-peritoneally with urethane, and a cannula was inserted into the respiratory tract and the femoral artery, respectively. A suspension (30-100 μm, 10 mg/ml) of carbon powder in a corn oil was intratrachealy injected to induce a hypoxemia state (PaO2; 50-60 mmHg). A compound in accordance with the present invention was continuously intravenously injected into these hypoxemia model animals (0.1 mg/kg/min., 10 min.), and then a partial pressure value of gases (PaO2, PaCO2) in arterial blood was immediately determined.

A further experiment has as its system hypoxemia state rats. Put plainly: Effect on partial pressure value of gases in arterial blood, oral administration system, Method A (acetic acid induced hypoxemia, about 60 min). The following applies: 60 min. after administration. It is filed as in vivo, rat (Male Wistar strain). As to the method:
Effect on Partial Pressure Value of Gases in Arterial Blood (Oral Administration System) Method A Male Wistar strain rats (body weight about 250 g) fasted overnight were anesthetized with halothane inhalant, and a cannula then inserted into the femoral artery. After the animals recovered from the anesthesia, they were again anesthetized with halothane inhalant, and then 2.0% acetic acid was […] injected at 0.8 ml/kg to induce a hypoxemia state. After the hypoxemic state (PaO2 :60-80 mmHg) was observed over about 60 min., a compound in accordance with the present invention (test substance, 10 or 30 mg/kg) was orally administered to the animals. Then 60 min. after the administration, the partial pressure value of gases (PaO2, PaCO2) in arterial blood was determined.

In the case of `C=CCNc1nc(NCc2ccco2)c2ccn(C)c2n1` [Compound 172], in the experiment with hypoxemia model animals [1], the “Activity for Decreasing PaCO2: increment PaCO2” value (“Activity for Decreasing PaCO2” for short) is on record as -2.8 mmHg and the “Activity for Increasing PaO2: increment PaO2” value (from here on “Activity for Increasing PaO2”) is “+12.3 mmHg”.
In the case of `C=CCNc1nc(N[C@H]2CC[C@@H](OC)CC2)c2ccn(C)c2n1` [Compound 185], in the experiment on hypoxemia model animals [1], the “Activity for Decreasing PaCO2” value was -6.0 mmHg and the “Activity for Increasing PaO2” value is “+11.7 mmHg”.
For `C=CCNc1nc(N2C(C)CCCC2C)c2ccn(C)c2n1` (stereo not drawn) [Compound 183] the same measures were -4.6 mmHg and “+10.7 mmHg”.
With `C=CCNc1nc(NC(COC)COC)c2ccn(C)c2n1` [Compound 184], in the experiment on hypoxemia model animals [1], the “Activity for Decreasing PaCO2” value is -0.7 mmHg and the “Activity for Increasing PaO2” value is “+7.8 mmHg”.
Regarding `C=CCNc1nc(N(C)CCc2ccccc2)c2ccn(C)c2n1` [Compound 167], the “Activity for Decreasing PaCO2” value with hypoxemia model animals [1] was -6.6 mmHg.
As for `C=CCNc1nc(NCC2CCCO2)c2ccn(C)c2n1` (stereo not drawn) [Compound 179], in the experiment on hypoxemia model animals [1], the “Activity for Decreasing PaCO2” value is “+2.4 mmHg” and the “Activity for Increasing PaO2” value was “+8.5 mmHg”.
For `C=CCNc1nc(NCc2cccs2)c2ccn(C)c2n1` [Compound 174] the same measures were -2.9 mmHg and “+5.8 mmHg”.
Turning to `C=CCNc1nc(NC(C)(C)C)c2ccn(C)c2n1` [Compound 178], in the experiment on hypoxemia model animals [1], the “Activity for Decreasing PaCO2” value is -16.4 mmHg and the “Activity for Increasing PaO2” value is “+16.4 mmHg”. Moreover, in the experiment on hypoxemia animals (10 mg/kg), the “Activity for Decreasing PaCO2” value is -6.6 mmHg and the “Activity for Increasing PaO2” value was “+17.0 mmHg”.
With `C=CCNc1nc(N2CCN(C(c3ccc(F)cc3)c3ccc(F)cc3)CC2)c2ccn(CC=C)c2n1` [Compound 143], in the experiment with hypoxemia model animals [2], the “Activity for Decreasing PaCO2” value was “+1.1 mmHg” and the “Activity for Increasing PaO2” value is reported as “+5.0 mmHg”.
With `C=CCNc1nc(NCCc2ccc(OC)cc2)c2ccn(C)c2n1` [Compound 175], in the experiment with hypoxemia model animals [1], the “Activity for Decreasing PaCO2” value is -13.1 mmHg and the “Activity for Increasing PaO2” value is listed as “+15.2 mmHg”.
For the compound `C=CCNc1nc(NC(C)C)c2ccn(C)c2n1` [Compound 176], the entries for the “Activity for Decreasing PaCO2” value in the experiment on hypoxemia model animals [1] and in the experiment with hypoxemia animals (10 mg/kg) were -14.8 mmHg and -5.4 mmHg, respectively. Besides, the “Activity for Increasing PaO2” value is recorded as “+22.2 mmHg” in the experiment with hypoxemia model animals [1] and “+11.6 mmHg” in the experiment on hypoxemia animals (10 mg/kg).
Turning to `C=CCNc1nc(N2CCC(OC(C)=O)CC2)c2ccn(C)c2n1` [Compound 119], in the experiment with hypoxemia model animals [2], the “Activity for Decreasing PaCO2” value is given as -2.6 mmHg and the “Activity for Increasing PaO2” value is reported as “+7.1 mmHg”.
Regarding `C=CCNc1nc(N(C)C)c2ccn(C)c2n1` [Compound 165], the “Activity for Decreasing PaCO2” value in the experiment with hypoxemia model animals [1] is on record as “+1.1 mmHg”; with hypoxemia state rats (30 mg/kg), -3.4 mmHg. Also, the “Activity for Increasing PaO2” value is on record as “+7.9 mmHg” in the experiment with hypoxemia model animals [1] and “+8.5 mmHg” in the experiment with hypoxemia state rats (30 mg/kg).
`C=CCNc1nc(N2CCN(C(c3ccc(F)cc3)c3ccc(F)cc3)CC2)c2ccn(C)c2n1` [Compound 133]: in the experiment on hypoxemia model animals [2], the “Activity for Decreasing PaCO2” value is -0.6 mmHg and the “Activity for Increasing PaO2” value was “+6.9 mmHg”.
Turning to `C=CCNc1nc(NCCCc2ccco2)c2ccn(C)c2n1` [Compound 173], in the experiment on hypoxemia model animals [1], the “Activity for Decreasing PaCO2” value was -13.1 mmHg and the “Activity for Increasing PaO2” value is recorded as “+12.0 mmHg”. In the experiment on hypoxemia state rats (10 mg/kg), the “Activity for Decreasing PaCO2” value is -3.7 mmHg and the “Activity for Increasing PaO2” value is recorded as “+4.2 mmHg”.
For `C=CCNc1nc(N(CCOCC)CCOCC)c2ccn(C)c2n1` [Compound 181], in the experiment on hypoxemia model animals [1], the “Activity for Decreasing PaCO2” value is “+1.2 mmHg” and the “Activity for Increasing PaO2” value was “+6.4 mmHg”.
Regarding `C=CCNc1nc(N2CCC(OC)CC2)c2ccn(C)c2n1` [Compound 180], in the experiment with hypoxemia model animals [1], the “Activity for Decreasing PaCO2” value is listed as -0.5 mmHg and the “Activity for Increasing PaO2” value was “+6.5 mmHg”.
In the case of `C=CCNc1nc(N(C)[C@H]2CC[C@H](OC)CC2)c2ccn(C)c2n1` [Compound 189], in the experiment on hypoxemia model animals [1], the “Activity for Decreasing PaCO2” value is reported as -6.0 mmHg and the “Activity for Increasing PaO2” value is reported as “+7.3 mmHg”.
For the compound `C=CCNc1nc(N[C@H]2CC[C@H](OC)CC2)c2ccn(C)c2n1` [Compound 186], in the experiment on hypoxemia model animals [1], the “Activity for Decreasing PaCO2” value is -15.4 mmHg and the “Activity for Increasing PaO2” value is listed as “+12.3 mmHg”. Moreover, in the experiment with hypoxemia animals (10 mg/kg), the “Activity for Decreasing PaCO2” value is reported as -5.3 mmHg and the “Activity for Increasing PaO2” value is recorded as “+14.9 mmHg”.
On to `C=CCNc1nc(N2CCOCC2)c2ccn(C)c2n1` [Compound 124], for which, in the experiment on hypoxemia model animals [1], the “Activity for Decreasing PaCO2” value was -4.0 mmHg and the “Activity for Increasing PaO2” value is on record as “+5.7 mmHg”. In addition, in the experiment on hypoxemia animals (30 mg/kg), the “Activity for Decreasing PaCO2” value is on record as -2.5 mmHg and the “Activity for Increasing PaO2” value is “+8.0 mmHg”.
In the case of `C=CCNc1nc(N[C@H]2CC[C@H](OCCOCC)CC2)c2ccn(C)c2n1` [Compound 187], in the experiment with hypoxemia model animals [1], the “Activity for Decreasing PaCO2” value is on record as -14.7 mmHg and the “Activity for Increasing PaO2” value was “+13.7 mmHg”. In addition, in the experiment with hypoxemia animals (10 mg/kg), the “Activity for Decreasing PaCO2” value was “+6.9 mmHg” and the “Activity for Increasing PaO2” value is recorded as “+16.0 mmHg”.
Regarding `C=CCNc1nc(N2CCCCC2C)c2ccn(C)c2n1` (stereo not drawn) [Compound 182], in the experiment with hypoxemia animals (30 mg/kg), the “Activity for Decreasing PaCO2” value is listed as -2.2 mmHg and the “Activity for Increasing PaO2” value is “+3.3 mmHg”.
Turning to `C=CCNc1nc(NC(C)c2ccccc2)c2ccn(C)c2n1.Cl` (racemic) [Compound 156, (±)-2-allylamino-7-methyl-4-(1-phenylethylamino)-7H-pyrrolo[2,3-d]pyrimidine hydrochloride], the “Activity for Decreasing PaCO2” value with hypoxemia model animals [1] is reported as -9.1 mmHg; in the experiment on hypoxemia state rats (30 mg/kg) it was -8.1 mmHg. The “Activity for Increasing PaO2” value in the experiment on hypoxemia state rats (30 mg/kg) is given as “+7.8 mmHg”.

These data come from patent US5661148A, “Pyrrolo[2,3-d]pyrimidine derivatives, process for producing the same and pharmaceutical preparation comprising the same as active ingredient” (Teijin Limited, priority 1989, dated 1997).
